According to ChEMBL document CHEMBL1135335, “Multisubstrate analogue inhibitors of glucosamine-6-phosphate synthase from Candida albicans” (Bioorg Med Chem Lett, 2002):
The source made the active and inactive calls. The rule behind the calls is not given here.

Experiments:
[1] = Concentration required to inhibit glucosamine-6-phosphate synthase (GFAT) isolated from Candida albicans
Saccharomyces cerevisiae = assay: Inhibitory activity against glucosamine-6-phosphate synthase (GFAT) isolated from Saccharomyces cerevisiae at concentrations <10 mM; NI means no inhibition

Row | Compound | IC50 [1] | inhibition (Saccharomyces cerevisiae)
1 | NC(CCP(=O)(O)O)C(=O)O (configuration not stated) | 10 µM | 
2 | NC(CCCP(=O)(O)O)C(=O)O (configuration not stated) | 210 µM | 
3 | O=C(O)[C@@H]1C[C@H](CP(=O)(O)O)CCN1 [SELFOTEL] | 0.4 µM | 
4 | NC(CCCCCP(=O)(O)O)C(=O)O (configuration not stated) [AP-7] | 270 µM | 
5 | NC(CP(=O)(O)O)C(=O)O (configuration not stated) | 0.01 µM | inactive
6 | NC(CCCCP(=O)(O)O)C(=O)O (configuration not stated) | 250 µM | 
